Data set [1] is described as follows: Cefazolin release from thermo-responsive alginate/PNIPAM patch with heater. In kind it is physicochemical. The conditions noted are these: PNIPAM carriers in alginate patch, heat applied; over 1 h. From the text: To minimize the thermal contact resistance between the microheater and the hydrogel layer, the hydrogel was directly cast on top of the heater. Chronic wounds are known for their high rate of exudate generation and thus exudate management is important in the proper function of the sensors and drug delivery modules. The utilized alginate-based hydrogels are known for high water uptake and swelling ratios and have been used in engineering wet wound dressings. In addition, since the sensors are in direct contact with the skin, the swelling of the hydrogels is not expected to affect the readout. To visualize the drug release, rhodamine B was loaded into PNIPAM particles and the system was heated while being monitored under a microscope. […] After applying heat to the alginate patch, the cefazolin release profile was measured over time. […] To assess the possibility of releasing drugs in a dynamic fashion, heat was applied periodically (30 min on, 30 min off) and the drug release amount was determined. […]
Drug Release with Integrated Heaters: Alginate hydrogel with embedded drug microcarriers was attached on the surface of the microheater while 200 μL PBS was added into the plate and electrical voltage was applied to generate heat. The drug released into the solution was evaluated using plate reader.

For data set [2] the following is noted: after 180 min, target 20 μg/mL. An excerpt: The intradermal drug delivery kinetics were further evaluated by developing an in vitro model mimicking the structure of wounds in which eschar and granulation tissue separates the endothelial cells from the outside environment. This model, illustrated schematically in FIG. 2a, consisted of a cell culture insert with a porous membrane covered by agarose (3% w/v) with ˜2 mm thickness, and the bottom well represented the environment of endothelial cells.
Assessment of release kinetics: To mimic the chronic wound tissue, 12-well cell culture inserts were filled with 150 μL of 3% (w/v) agarose. […] Inserts were divided into 3 groups (4 replicate/group) with respect to the method of delivery, including topical, MNA, and LJI. To measure the concentration of the delivered solution, at each time point 100 μL was removed and then replaced with the same volume of fresh PBS. After collecting all samples, the concentration was measured by a plate reader (Cytation 5, BioTek) followed by data analysis to extract the related release graphs. In the case of BSA, measurement process was followed based on manufacturer's protocol.

Another data set has as its system keratinocytes. As to the kind of experiment: Scratch test assay on keratinocytes contaminated with S. aureus. In kind it is cell-based, human. The conditions noted are these: keratinocyte monolayer contaminated with S. aureus. The protocol: A standard scratch test assay was used to evaluate the cell migration in presence of bacteria. […] To perform this experiment, the scratch was created over a monolayer of the confluent keratinocytes, which were contaminated with S. aureus in advance. Three groups were used for this set of experiments: (1) cefazolin powder as a positive control, (2) alginate without antibiotic loading as a negative control, and (3) alginate containing cefazolin.
Keratinocytes (1×10^5) were seeded and cultured in a six-well plate and kept overnight to make a confluent monolayer overnight. The 1 mm wide gap scratch was then created onto the monolayer with a 200 μL pipette tip, and floating cells were removed by twice washing with PBS. After the line scratches, 2 mL of DMEM was added for each group. To detect the efficacy of treatments on cell migration, samples were continually imaged for 0, 8, 24, and 48 h. Images of the monolayer were taken by a microscope and cell migration activity was evaluated as the migration distance from the edges of the scratch toward the center of it using Image J software (NIH, Bethesda, Md., USA). For each well, ten images were taken and selected randomly. Experiments were done independently in triplicate.

Data set [3] in a line: Drug adsorption to the bandage: solution perfused through the MNAs. The class given is physicochemical. The conditions noted are these: perfusion through bandage and MNAs; BSA 54 ng/mL, cefazolin 16 μg/mL.
Experimental: Once the system was characterized, the efficiency of the bandage in drug delivery was evaluated. Initially, the potential drug adsorption to the engineered bandage was to be tested. […] The solution was then collected at different time points after perfusion through the MNAs and the concentration of the drugs determined using a total protein assay (for BSA) and UV-Vis spectrophotometry (for cefazolin).
Drug Delivery Characterization: The potential protein and drug adsorption by the bandage, tubing, and MNAs were investigated by perfusing a solution with known concentrations of cefazolin salt and BSA. 150 μL of the delivered solution was collected at different time points and the concentrations of cefazolin and BSA were determined by measuring the solution absorbance for cefazolin and BCA protein assay kit for BSA.

“Also recorded” adds a separate entry of the source. Read-outs that look alike come from different tables or passages of the source.

As for `Cc1nnc(SCC2=C(C(=O)O)N3C(=O)[C@@H](NC(=O)Cn4cnnn4)[C@H]3SC2)s1` [cefazolin], the drug released entry in data set [1] is “about 80%”. The “delivered into the bottom chamber (overall efficiency of delivery)” value is “more than 90%” in data set [2] (LJI), around 65% in data set [2] (MNAs) and around 25% in data set [2] (topical (TOP)). Besides, the “cell migration in scratch assay” value in the data set with keratinocytes is recorded as “rapid migration toward the opening area was observed”. Besides, the “temporal changes in the drug concentration within the perfused solution” value in data set [3] was “not statistically significant; also recorded: insignificant change in concentration”.

Values taken from patent US20220273926A1, “DRUG DELIVERY USING MICRONEEDLE ARRAYS” (BOARD OF REGENTS OF THE UNIVERSITY OF NEBRASKA, priority 2019, published 2022).
